For 2 molecules, Ratio EC50 and Ratio Ki results are on record in ChEMBL document CHEMBL2417521, “Class A G-protein-coupled receptor (GPCR) dimers and bivalent ligands” (J Med Chem, 2013).

One assay concerns HEK293. The experiment in a line: Selectivity ratio of EC50 for mu/kappa opioid receptor in HEK293 cells to EC50 for mu opioid receptor in HEK293 cells. The class given is cell-based. Conditions: Homo sapiens.
Assay [1] addresses Dopamine receptor D2L/neurotensin receptor NTS1 (Homo sapiens) (UniProt P14416+P30989). The experiment in a line: Ratio of Ki for D2L/NTS1 (unknown origin) expressed in HEK293 cell membrane in presence of neurotensin to Ki for D2L/NTS1 (unknown origin) expressed in HEK293 cell membrane in absence of neurotensin. The class given is cell-based.

For `O=C(N[C@@H]1CC[C@@]2(O)[C@H]3Cc4ccc(O)c5c4[C@@]2(CCN3CC2CC2)[C@H]1O5)c1ccc2ccccc2c1`, in the assay with HEK293, the Ratio EC50 was determined as 1000. As for `CCCN(CCCCNC(=O)c1cnn2ccccc12)C1Cc2ccccc2C1`, in assay [1], the Ratio Ki stood at 34.
